In publication PMC5063977 (The Journal of Biological Chemistry, 2016):

Tests used:
[1] = molecular target: T1, RAMP2-CLR (AM1 receptor) (Homo sapiens, UniProt O60895+Q16602); experiment: S. cerevisiae growth assay, GPA1/Gαi chimera, RAMP2 + CLR; assay type: cell-based; settings: percentage of yeast strain MMY11 (lacking GPA1); 20 h; mean ± S.E., n = 6
T1 construct: FLAG; expressed in transfected cells; host or cells: HEK-293 or HEK-293S cells, transient transfection, 1:1 RAMP:CLR
Experimental: FIGURE 3. […] Reporter gene activity was determined following 20 h of stimulation.
General yeast procedures were performed as described previously ([22], [24]). The human CLR was introduced into yeast cells under the control of the PGK promoter using a plasmid containing ura3 (pDT-PGK). The three human RAMPs were introduced into yeast under the control of the GAPDH promoter using plasmids containing leu2 (p425-GPD) ([25]). S. cerevisiae dual reporter strains expressing chimeras of yeast GPA1(1–467) (GPA1/Gα) with the five C-terminal amino acids of […] human G proteins representing Gαs, Gα16, Gαq, Gαo, Gαi1/2, Gαi3, Gαz, Gα12, Gα13, and Gα14 (MMY84–MMY93) were used in this study ([52]). […] Receptor signaling was measured using the yeast growth assay as described previously ([24]). […] A fluorescein signal was detected as an increase in fluorescence (excitation wavelength = 485 nm, emission wavelength = 535 nm) as a measure of growth. Different concentrations of ligand (0.01 nM–100 μM) were assayed using 96-well plates, and fluorescence was detected using a Tecan Infinite M200 microplate reader (Tecan Ultra Evolution, Reading, UK) or a Mithras LB 940 microplate reader (Berthold Technologies, Harpenden, UK) for 20 h. […]

[2] = molecular target: T2, RAMP1-CLR (CGRP receptor) (Homo sapiens, UniProt O60894+Q16602); experiment: (Ca^2+)i mobilization, HEK-293S cells, RAMP1 + CLR; assay type: cell-based; settings: HEK293S, percentage of maximal (Ca^2+)i release with 10 μM ionomycin, mean ± S.E., n = 5
T2 construct: FLAG; expressed in transfected cells; host or cells: HEK-293 or HEK-293S cells, transient transfection, 1:1 RAMP:CLR
T2 sequence (Q16602 23-461): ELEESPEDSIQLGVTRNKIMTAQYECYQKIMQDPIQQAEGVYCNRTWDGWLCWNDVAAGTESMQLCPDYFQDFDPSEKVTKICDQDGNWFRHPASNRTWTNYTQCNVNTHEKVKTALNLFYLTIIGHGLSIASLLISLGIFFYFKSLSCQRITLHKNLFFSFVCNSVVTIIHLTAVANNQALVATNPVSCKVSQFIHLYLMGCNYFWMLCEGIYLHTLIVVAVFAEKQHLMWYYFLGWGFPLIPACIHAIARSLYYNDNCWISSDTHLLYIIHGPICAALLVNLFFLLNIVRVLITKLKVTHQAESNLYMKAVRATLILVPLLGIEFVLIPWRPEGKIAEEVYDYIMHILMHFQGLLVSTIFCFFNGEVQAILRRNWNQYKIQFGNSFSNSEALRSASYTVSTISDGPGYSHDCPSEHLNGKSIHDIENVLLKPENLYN
T2 sequence (O60894 27-148): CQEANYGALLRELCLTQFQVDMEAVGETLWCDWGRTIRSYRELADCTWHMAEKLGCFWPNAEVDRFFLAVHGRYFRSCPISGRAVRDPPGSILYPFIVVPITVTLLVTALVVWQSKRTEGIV
Experimental: HEK-293 cells were transfected with FuGENE 6 (Roche Applied Science) in accordance with the manufacturer's instructions using a 1:3 (w:v) DNA:FuGENE ratio and a 1:1 ratio of RAMP to CLR. […] The transfected cell lines were grown for 24–48 h prior to assaying.
Transfected HEK-293 cells were grown to confluence in black, clear bottomed, 96-well plates. […] Cells were then washed followed by the addition of 100 μl of Ca^2+-free Hanks' balanced salt solution. […] Recordings were obtained every 0.5 s for 120 s. Peak magnitude was calculated using five-point smoothing followed by correction against background fluorescence. The peak was used to generate concentration-response curves and normalized relative to 10 μM ionomycin.
Data analysis for cAMP assays was performed in GraphPad Prism 6.0f (San Diego, CA). […] These values were then used to quantify signaling bias as change in log (τ/Ka) relative to the natural cognate ligand for the respective receptor ([41]). […] Statistical differences were analyzed using one-way ANOVA or Student's t test as appropriate with post hoc Bonferroni's or Dunnett's multiple comparisons, and p < 0.05 was considered significant. […] To quantitate the ligand-dependent response in the yeast system, a strain lacking GPA1 (MMY11), grown in rich medium, was used as a standard ([72]). […]

T1 sequence (Q16602 23-461): as the sequence (Q16602 23-461) above
T1 sequence (O60895 43-175): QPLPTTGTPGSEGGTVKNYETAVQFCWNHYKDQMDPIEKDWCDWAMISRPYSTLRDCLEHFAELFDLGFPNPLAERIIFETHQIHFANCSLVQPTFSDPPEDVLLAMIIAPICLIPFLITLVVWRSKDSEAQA

Row | Emax [1] [%] | Emax [2] [%] | Structure (SMILES)
1 | 15.7 ± 2.5 |  | CSCC[C@H](NC(=O)[C@H](CC(C)C)NC(=O)[C@H](CCC(N)=O)NC(=O)[C@H](Cc1c[nH]c2ccccc12)NC(=O)[C@H](CC(C)C)NC(=O)[C@H](CCCNC(=N)N)NC(=O)[C@H](Cc1c[nH]cn1)NC(=O)[C@H](CO)NC(=O)[C@H](CC(C)C)NC(=O)[C@H](CC(N)=O)NC(=O)[C@H](CCC(N)=O)NC(=O)[C@@H](NC(=O)[C@H](CCC(N)=O)NC(=O)[C@@H]1CSSC[C@H](NC(=O)CNC(=O)[C@@H](NC(=O)[C@H](CCCNC(=N)N)NC(=O)[C@H](CC(C)C)NC(=O)[C@H](CC(C)C)NC(=O)[C@H](CCC(N)=O)NC(=O)[C@H](C)NC(=O)[C@H](CCC(N)=O)NC(=O)[C@@H](N)[C@@H](C)O)C(C)C)C(=O)N[C@@H](C(C)C)C(=O)N[C@@H](CC(C)C)C(=O)NCC(=O)N[C@@H]([C@@H](C)O)C(=O)N1)C(C)C)C(=O)NCC(=O)N1CCC[C@H]1C(=O)N[C@@H](C)C(=O)NCC(=O)N[C@@H](CCCNC(=N)N)C(=O)N[C@@H](CCC(N)=O)C(=O)N[C@@H](CC(=O)O)C(=O)N[C@@H](CO)C(=O)N[C@@H](C)C(=O)N1CCC[C@H]1C(=O)N[C@H](C(=O)N[C@@H](CC(=O)O)C(=O)N1CCC[C@H]1C(=O)N[C@@H](CO)C(=O)N[C@@H](CO)C(=O)N1CCC[C@H]1C(=O)N[C@@H](Cc1c[nH]cn1)C(=O)N[C@@H](CO)C(=O)N[C@@H](Cc1ccc(O)cc1)C(N)=O)C(C)C [AM2, adrenomedullin 2]
2 |  | 38.2 ± 3.8 | CC[C@H](C)[C@H](NC(=O)[C@H](CCC(N)=O)NC(=O)[C@H](Cc1c[nH]cn1)NC(=O)[C@H](C)NC(=O)[C@H](CC(C)C)NC(=O)[C@H](CCCCN)NC(=O)[C@H](CCC(N)=O)NC(=O)[C@@H](NC(=O)[C@@H](NC(=O)[C@@H]1CSSC[C@H](NC(=O)CNC(=O)[C@H](Cc2ccccc2)NC(=O)[C@H](CO)NC(=O)[C@H](CCCNC(=N)N)NC(=O)[C@H](CC(C)C)NC(=O)CNC(=O)[C@H](CCC(N)=O)NC(=O)[C@H](Cc2ccccc2)NC(=O)[C@H](CC(N)=O)NC(=O)[C@H](CC(N)=O)NC(=O)[C@H](CCSC)NC(=O)[C@H](CO)NC(=O)[C@H](CCC(N)=O)NC(=O)[C@H](CCCNC(=N)N)NC(=O)[C@@H](N)Cc2ccc(O)cc2)C(=O)N[C@@H](CCCNC(=N)N)C(=O)N[C@@H](Cc2ccccc2)C(=O)NCC(=O)N[C@@H]([C@@H](C)O)C(=O)N1)[C@@H](C)O)C(C)C)C(=O)N[C@@H](Cc1ccc(O)cc1)C(=O)N[C@@H](CCC(N)=O)C(=O)N[C@@H](Cc1ccccc1)C(=O)N[C@H](C(=O)N[C@@H](CC(=O)O)C(=O)N[C@@H](CCCCN)C(=O)N[C@@H](CC(=O)O)C(=O)N[C@@H](CCCCN)C(=O)N[C@@H](CC(=O)O)C(=O)N[C@@H](CC(N)=O)C(=O)N[C@H](C(=O)N[C@@H](C)C(=O)N1CCC[C@H]1C(=O)N[C@@H](CCCNC(=N)N)C(=O)N[C@@H](CO)C(=O)N[C@@H](CCCCN)C(=O)N[C@H](C(=O)N[C@@H](CO)C(=O)N1CCC[C@H]1C(=O)N[C@@H](CCC(N)=O)C(=O)NCC(=O)N[C@@H](Cc1ccc(O)cc1)C(N)=O)[C@@H](C)CC)C(C)C)[C@@H](C)O [AM, adrenomedullin]
